# Measured values as given in patent publication US7989004B2, “Antitubercular extracts of Salicornia brachiata” (Council of Scientific and Industrial Research, priority 2004, dated 2011).
# Tested on: M. tuberculosis H37Rv
# Experiment: BACTEC method of in-vitro screening (growth index, radiometric 7H12 broth)
# Type: cell-based
# Details: 100 μg/mL
smiles,measurement,value
OC[C@H]1O[C@@](CO)(O[C@H]2O[C@H](CO)[C@@H](O)[C@H](O)[C@H]2O)[C@@H](O)[C@@H]1O [sucrose],inhibition of growth,no inhibition
